Here are results for three molecules from US20180245061A1, “Modified Heterocyclase” (THE UNIVERSITY COURT OF THE UNIVERSITY OF ABERDEEN, priority 2014, published 2018).

The term Kd denotes the equilibrium constant for the complex coming apart.

Experiment [1] has as its target Lyngbya sp. LynD heterocyclase (SEQ ID NO: 1) variant R427E. The experiment is described as follows: ITC nucleotide binding (ATP/AMP) to LynD R427E. More on the design: species or system Lyngbya sp. PCC 8106. The conditions noted are these: 20° C., pH 7.4, 5 mM MgCl2. The procedure: (§1) Codon optimized full-length LynD (Lyngbya sp. PCC 8106) with an N-terminal TEV protease-cleavable His6-tag was purchased from DNA2.0 in the pJexpress411 plasmid. The protein was expressed in Escherichia coli BL21 (DE3) grown on auto-induction medium {Studier, 2005, Protein expression and purification, 41, 207-234} for 48 h at 20° C. Cells were harvested by centrifugation at 4,000×g, 4° C. for 15 min and re-suspended in lysis buffer (500 mM NaCl, 20 mM Tris pH 8.0, 20 mM imidazole and 3 mM β-mercaptoethanol (BME)) with the addition of complete EDTA-free protease inhibitor tablets (Roche) and 0.4 mg DNase g^−1 wet cells (Sigma). Cells were lysed by passage through a cell disruptor at 30 kPSI (Constant Systems Ltd) and the lysate was cleared by centrifugation at 40,000×g, 4° C. for 20 min. The cleared lysate was applied to a Nickel Sepharose 6 Fast Flow (GE Healthcare) column pre-washed with lysis buffer and protein eluted with 250 mM imidazole. The protein was then passed over a desalting column (Desalt 16/10, GE Healthcare) in 100 mM NaCl, 20 mM Tris pH 8.0, 20 mM imidazole, 3 mM BME. Tobacco etch virus (TEV) protease was added to the protein at a mass-to-mass ratio of 1:10 and the protein digested for 2 h at 20° C. to remove the Hiss-tag. However, removal of the Hiss-tag was not essential for activity and so less vigorous methods for purification may also be used. […]

The target in experiment [2] is Lyngbya sp. LynD heterocyclase (SEQ ID NO: 1) variant K409E. The experiment in a line: ITC nucleotide binding (ATP/AMP) to LynD K409E. More on the design: species or system Lyngbya sp. PCC 8106. The conditions noted are these: 20° C., pH 7.4, 5 mM MgCl2. The procedure: as §1
Experiment [3] concerns the target Lyngbya sp. LynD heterocyclase, wild type, SEQ ID NO: 1. The experiment in a line: ITC nucleotide binding (ATP/AMP) to LynD. More on the design: species or system Lyngbya sp. PCC 8106. To be noted: 20° C., pH 7.4, 5 mM MgCl2, one-site model, stoichiometry set to 1, read-out: Nucleotide KD (ATP). On the procedure: as §1
In experiment [4] the target is Lyngbya sp. LynD heterocyclase (SEQ ID NO: 1) variant E423R. The experiment in a line: ITC nucleotide binding (ATP/AMP) to LynD E423R. Also noted: species or system Lyngbya sp. PCC 8106. The conditions noted are these: 20° C., pH 7.4, 5 mM MgCl2. On the procedure: as §1
Experiment [5] deals with Lyngbya sp. LynD heterocyclase (SEQ ID NO: 1) variant K409A. The experiment in a line: ITC nucleotide binding (ATP/AMP) to LynD K409A. Also noted: species or system Lyngbya sp. PCC 8106. The conditions noted are these: 20° C., pH 7.4, 5 mM MgCl2. The procedure:
as §1

The target in experiment [6] is Lyngbya sp. LynD heterocyclase (SEQ ID NO: 1) variant R636E. The experiment is described as follows: ITC nucleotide binding (ATP/AMP) to LynD R636E. To be noted: 20° C., pH 7.4, 5 mM MgCl2. Also noted: species or system Lyngbya sp. PCC 8106. On the procedure: as §1
The test system of experiment [7] is ITACITACAYDGE
The experiment in a line: Heterocyclization of leaderless substrate peptide ITACITACAYDGE by fused-MicD/PatD enzymes (LC-ESI-MS, MALDI-TOF-MS, HPLC-ESI-MS). In kind it is biochemical. To be noted: 20-30 μM enzyme, 100-110 μM peptide, 5 mM ATP, 5 mM MgCl2, 27° C., 16 h. On the procedure:
The Reaction was performed in 100 mM Tris pH 8.0 supplemented with 150 mM NaCl, 5 mM ATP and 5 mM MgCl2 and contained 20 μM enzyme and 100 μM peptide. The mixture was incubated at 27° C. for 16 h. The unprocessed substrate has a molecular weight of 1329.5 Da.
Reaction was performed in 50 mM Bicine pH 9.0 supplemented with 150 mM NaCl, 5 mM ATP and 5 mM MgCl2 and contained 30 μM enzyme and 110 μM peptide. The mixture was incubated at 27° C. for 16 h. The unprocessed substrate has a molecular weight of 1219.5 Da.
Each reaction contained 100 mM Tris pH 8.0, 150 mM NaCl, 5 mM ATP and 5 mM MgCl2, 20 μM of the respective enzyme and 100 μM substrate peptide, and was incubated at 27° C. for 16 h. The unprocessed substrate has a molecular weight of 1329.5 Da.
Reaction was performed in 50 mM Bicine pH 9.0 supplemented with 150 mM NaCl, 5 mM ATP and 5 mM MgCl2 and contained 30 μM enzyme and 110 μM peptide. The mixture was incubated at 27° C. for 16 h. The unprocessed substrate has a molecular weight of 1329.5 Da.
Only 1 peak (9.254 min) indicates the reaction product is only one species. […] Multiple peaks of low intensity compared with m/z=1258.5 can be attributed to noise. Product was purified from the enzyme and ATP using size exclusion chromatography (Superdex 30, GE Healthcare) and exchanged into 50 mM Bicine pH 9.0, 500 mM NaCl and 5% DMSO.

In the case of `Nc1ncnc2c1ncn2[C@@H]1O[C@H](COP(=O)(O)OP(=O)(O)OP(=O)(O)O)[C@@H](O)[C@H]1O` [ATP], the “Nucleotide KD (ATP)” value in experiment [1], in experiment [2], in experiment [4], in experiment [5] and in experiment [6] was “no binding” each time. The Kd in experiment [3] came out at 50.2 µM.

B1: MicD-R16-GLEAS-5GA: fused-MicD: leader from R16 extended by GLEAS prior to the GA linker (SEQ ID NO: 43) (protein)
chain: MSHHHHHHDYDENLYFQGSRLTAGQLSSQLAELSEEALGDAGLEASGAGAGAGAGAKLMQSTPLLQIQPHFHVEVIEPKQVYLLGEQANYALTGQLYCQILPLLDGQHSREQIVEKLDGEVPSEYIDYVLDRLAEKGYLTEAAPELSSEVAAFWSELGIAPPVAAEALRQSVTLTPVGNISEVTVAALTTALRDIGISVQTPTEAGSPTALNVVLTDDYLQPELAKINKQALESQQTWLLVKPVGSVLWLGPVFVPGKTGCWDCLAHRLRGNREVEASVLQQKQAQQQRNGQSGSVIGCLPTARATLPSTLQTGLQFAATEIAKWIVKHHVKATAPGTVFFPTLDGKIITFNHTVIDLKSHVLVRRSQCPSCGDRQILHRQGFEPVKLVSRRKHFTHDGGHRAFTPEQTVQKYQHLVSPITGVVTELVRLTDPANPLVHTYKAGHAFGSATTLRGLRNTLKYKSSGKGKTDIQSRASGLCEAIERYSGIFQGDEPRKRATLAELGDLALHPESLLYFSNTQYANREELNAQGSAAAYRWIPNRFDVSQAIDWTPVWSLTEQKHKYVPTAFCYYGYPLPEEQRFCKADSNGNAAGNTLEEAILQGFLELVERDSIAMWWYNRIRRPAVDLSTFDEPYFVDLQQFYQQQNRELWVLDVTADLGIPAFAGFSRRTVGTSERISIGFGAHLDPTIAILRALTEVSQVGLELDKIPDDKLDGESKDWMLNVTVENHPWLAPDPSVPMKTASDYPKRWSDDIHTDVMNCVKTAQTAGLEVMVLDQTRPDIGLNVVKVIIPGMRTFWTRFGQGRLYDIPVKLGWLDAPLAEEELNQTNIPF
modifications: Modified heterocyclase MicroD_R16_GLEAS_5GA
For the molecule B1, the “heterocyclized species produced from ITACITACAYDGE” value in experiment [7] was “no effect on heterocyclization”.

B2: MicD-Q21-9GA: fused-MicD: leader from Q21, 9 GA repeats linker, KL, MicD (SEQ ID NO: 41) (protein)
chain: MSHHHHHHDYDENLYFQGSQLSSQLAELSEEALGDAGAGAGAGAGAGAGAGAGAKLMQSTPLLQIQPHFHVEVIEPKQVYLLGEQANYALTGQLYCQILPLLDGQHSREQIVEKLDGEVPSEYIDYVLDRLAEKGYLTEAAPELSSEVAAFWSELGIAPPVAAEALRQSVTLTPVGNISEVTVAALTTALRDIGISVQTPTEAGSPTALNVVLTDDYLQPELAKINKQALESQQTWLLVKPVGSVLWLGPVFVPGKTGCWDCLAHRLRGNREVEASVLQQKQAQQQRNGQSGSVIGCLPTARATLPSTLQTGLQFAATEIAKWIVKHHVKATAPGTVFFPTLDGKIITFNHTVIDLKSHVLVRRSQCPSCGDRQILHRQGFEPVKLVSRRKHFTHDGGHRAFTPEQTVQKYQHLVSPITGVVTELVRLTDPANPLVHTYKAGHAFGSATTLRGLRNTLKYKSSGKGKTDIQSRASGLCEAIERYSGIFQGDEPRKRATLAELGDLALHPESLLYFSNTQYANREELNAQGSAAAYRWIPNRFDVSQAIDWTPVWSLTEQKHKYVPTAFCYYGYPLPEEQRFCKADSNGNAAGNTLEEAILQGFLELVERDSIAMWWYNRIRRPAVDLSTFDEPYFVDLQQFYQQQNRELWVLDVTADLGIPAFAGFSRRTVGTSERISIGFGAHLDPTIAILRALTEVSQVGLELDKIPDDKLDGESKDWMLNVTVENHPWLAPDPSVPMKTASDYPKRWSDDIHTDVMNCVKTAQTAGLEVMVLDQTRPDIGLNVVKVIIPGMRTFWTRFGQGRLYDIPVKLGWLDAPLAEEELNQTNIPF
modifications: Modified heterocyclase MicroD_Q21_9GA
As to B2, the results for the “heterocyclized species produced from ITACITACAYDGE” value in experiment [7] and in experiment [7] (listed as MicD-Q21-9G) were 4 and “only a single four heterocycle species”, respectively.
